In the supplement of paper PMC9938120:

How the values were obtained:
Assay in all cases: drug sensitivity score (DSS3, normalised partial AUC of % inhibition dose-response) (DSS (score)); higher = more sensitive (stronger inhibition of viability); extreme values may be limits of the assay
[1] = system: FMOC03 (patient-derived mucinous ovarian cancer cells); conditions: 72 h; library: FO5A; assay format: 2D, 384-well, CellTiter-Glo
In short: (§1)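 On 384-well flat clear-bottom plates carrying compounds at five concentrations across a 10,000-fold range, patient-derived ovarian cancer cells below passage 10 were incubated for 72 h at 37 °C with 5% CO2. CellTiter-Glo readout of viability was processed in Breeze. A higher drug sensitivity score, defined as the partial area under the percent-inhibition dose-response curve divided by the log of the upper asymptote, means greater sensitivity.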

[2] = system: FMOC22 (patient-derived mucinous ovarian cancer cells); conditions: 72 h; library: FO5A; assay format: 2D, 384-well, CellTiter-Glo
In short: as §1

[3] = system: FMOC02_2 (patient-derived low-grade serous ovarian cancer cells); conditions: 72 h; library: FO5A; assay format: 2D, 384-well, CellTiter-Glo
In short: as §1

[4] = system: FMOC24 (patient-derived high-grade serous ovarian cancer cells); conditions: 72 h; library: FO5A; assay format: 2D, 384-well, CellTiter-Glo
In short: as §1

[5] = system: FMOC09 (patient-derived high-grade serous ovarian cancer cells); conditions: 72 h; library: FO5A; assay format: 2D, 384-well, CellTiter-Glo
In short: as §1

[6] = system: FMOC14 (patient-derived high-grade serous ovarian cancer cells); conditions: 72 h; library: FO5A; assay format: 2D, 384-well, CellTiter-Glo
In short: as §1

[7] = system: FMOC25_1 (patient-derived low-grade serous ovarian cancer cells); conditions: 72 h; library: FO4B; assay format: 2D, 384-well, CellTiter-Glo
In short: as §1

[8] = system: FMOC02_3 (patient-derived low-grade serous ovarian cancer cells); conditions: 72 h; library: FO5A; assay format: 2D, 384-well, CellTiter-Glo
In short: as §1

[9] = system: FMOC06 (patient-derived mucinous ovarian cancer cells); conditions: 72 h; library: FO5A; assay format: 2D, 384-well, CellTiter-Glo
In short: as §1

[10] = system: FMOC25_2 (patient-derived low-grade serous ovarian cancer cells); conditions: 72 h; library: FO5A; assay format: 2D, 384-well, CellTiter-Glo
In short: as §1

| SMILES | drug sensitivity score [1] | drug sensitivity score [2] | drug sensitivity score [3] | drug sensitivity score [4] | drug sensitivity score [5] | drug sensitivity score [6] | drug sensitivity score [7] | drug sensitivity score [8] | drug sensitivity score [9] | drug sensitivity score [10] |
| --- | --- | --- | --- | --- | --- | --- | --- | --- | --- | --- |
| CCc1cncnc1N1CCN(Cc2nc3ccc(C(F)(F)F)cc3[nH]2)CC1 | 0.8 | 1.3 | 3.9 | 5.2 | 0.1 | 1.3 | 1.3 | 5.3 | 0.5 | 6.2 |
| CCn1c(-c2nonc2N)nc2c(C#CC(C)(C)O)ncc(OC[C@H]3CCCNC3)c21 | 2 | 1.2 | 10.3 | 1.6 | 2.4 | 2.7 | 4.5 | 12.5 | 4.5 | 8.1 |
| CCn1cc(-c2ccnc3[nH]c(-c4cccc(CN(C)C)c4)cc23)c(-c2ccc(NC(=O)N(C)C)cc2)n1 | 0 | 0.1 | 0 | 0.55 | 0 | 0 | 0 | 2.6 | 0 | 2.2 |
| CNC(=O)c1ccccc1Nc1nc(Nc2ccc3c(c2OC)CCC[C@H](N2CCN(CCO)CC2)C3)ncc1Cl | 7.2 | 7.1 | 11.1 | 5.95 | 8.3 | 6 | 9 | 11.7 | 10.3 | 10.3 |
| CNc1ncc2cc(-c3cc(NC(=O)NCCC(C)(C)C)c(F)cc3C)c(C)nc2n1 | 12 | 9.3 | 12.5 | 1.7 | 9.5 | 1.3 | 11.1 | 16.9 | 11.8 | 14.8 |
| C[C@@H](Oc1cc(-n2cnc3ccc(CN4CCN(C)CC4)cc32)sc1C(N)=O)c1ccccc1C(F)(F)F | 7.3 | 11.5 | 8.2 | 6.1 | 12.6 | 3.9 | 7.4 | 9.1 | 5.3 | 11.9 |
| Cc1nc(Nc2n[nH]c3c2CN(C(=O)N[C@H](CN(C)C)c2ccccc2)C3(C)C)c2sccc2n1 | 10.6 | 10.5 | 12.8 | 8.1 | 10.2 | 6.5 | 16.7 | 20.9 | 13.7 | 26.6 |
| O=C(NOC[C@H](O)CO)c1ccc(F)c(F)c1Nc1ccc(I)cc1F | 11.5 | 7.5 | 10.4 | 0.2 | 8 | 0.2 | 7 | 7 | 11.3 | 5.2 |
| O=C(Nc1ccc2[nH]nc(-c3ccncc3)c2c1)[C@@H]1CCN(CC(=O)N2CCN(c3ccc(-c4ncccn4)cc3)CC2)C1 | 18.4 | 11.8 | 14.3 | 3.15 | 9.6 | 1.1 | 16.6 | 16.8 | 14.9 | 18 |
| N#Cc1c(Oc2ccc(F)c(NC(=O)Cc3cccc(C(F)(F)F)c3)c2)ccc2nc(NC(=O)C3CC3)sc12 [TAK-632] |  |  |  |  |  |  | 4.4 |  |  |  |
| CCc1nc(-c2cccc(C)c2)c(-c2ccnc(NC(=O)c3ccccc3)c2)s1 [TAK-715] |  |  |  |  |  |  | 0 |  |  |  |
| Cn1c(=O)c(F)c(Nc2ccc(I)cc2F)c2c(=O)n(C[C@@H](O)CO)cnc21 [TAK-733] |  |  |  |  |  |  | 13.2 |  |  |  |
| COc1cc(C(=O)NC2CCN(C)CC2)c(F)cc1Nc1ncc2c(n1)N(C1CCCC1)CC(F)(F)C(=O)N2C [TAK-960] |  |  |  |  |  |  | 0 |  |  |  |
| NC(=O)Nc1sc(-c2ccc(F)cc2)cc1C(N)=O [TPCA-1] |  |  |  |  |  |  | 2.9 |  |  |  |
| C=CCNC1=C2C[C@@H](C)C[C@H](OC)[C@H](O)[C@@H](C)/C=C(\C)[C@H](OC(N)=O)[C@@H](OC)/C=C\C=C(/C)C(=O)NC(=CC1=O)C2=O [Tanespimycin] |  |  |  |  |  |  | 14.6 |  |  |  |
| S=P(N1CC1)(N1CC1)N1CC1 [Thio-TEPA] |  |  |  |  |  |  | 0.7 |  |  |  |
| O=C(O)CSc1cc(NS(=O)(=O)c2ccc(Br)cc2)c2ccccc2c1O [UMI-77] |  |  |  |  |  |  | 14.3 |  |  |  |
| Oc1ncc(N(CCCl)CCCl)c(O)n1 [Uramustine] |  |  |  |  |  |  | 0.1 |  |  |  |
| O=c1ncn2nc(Sc3ccc(F)cc3F)ccc2c1-c1c(Cl)cccc1Cl [VX 745] |  |  |  |  |  |  | 0 |  |  |  |
| CCn1c(=O)c(-c2cc[nH]n2)cc2c(C)nc(N)nc21 [Voxtalisib] |  |  |  |  |  |  | 10.6 |  |  |  |
| O=C(Nc1ccc(-c2ccnc(Nc3ccc(N4CCOCC4)cc3)n2)cc1)C1CCCN1 (stereo not given) [XL019] |  |  |  |  |  |  | 0.5 |  |  |  |
| COc1cc2c(Nc3ccc(Cl)c(Cl)c3F)ncnc2cc1OC[C@@H]1C[C@@H]2CN(C)C[C@@H]2C1 [XL-647] |  |  |  |  |  |  | 9.1 |  |  |  |
| COCC[n+]1c2c(n(Cc3cnccn3)c1C)C(=O)c1ccccc1C2=O [YM155] |  |  |  |  |  |  | 35.5 |  |  |  |
| c1ccc(Cn2c(-c3ccc(OC[C@H](C4CCNCC4)n4c(-c5ccccc5)nc5ccccc54)cc3)nc3ccccc32)cc1 [deltarasin] |  |  |  |  |  |  | 5.5 |  |  |  |
